Results from patent publication US8906925B2, “Pyrido[4,3-B]indoles containing rigid moieties” (Medivation Technologies, Inc., priority 2008, dated 2014).
“And” between values parts separate entries of the source, which are not always exact repeats. Identical values can stand only once.

Assays:
[1] = biological target: human dopamine D2L receptor (Homo sapiens, UniProt P14416); assay: Dopamine D2L radioligand binding ([3H]Spiperone); conditions: percent inhibition of specific binding, compound at 1 μM; for inhibition at 1 µM: read-out: Inhibition of ligand binding, Dopamine D2L; for Inhibition of ligand binding, Dopamine D2L: 1 µM
Source text: Non-specific binding was estimated in the presence of […] Haloperidol. Receptor proteins were filtered and washed, the filters were then counted to determine [^3H]Spiperone specifically bound. […] Biochemical assay results are presented as the percent inhibition of specific binding in Table 9.

[2] = biological target: human recombinant serotonin (5-Hydroxytryptamine) 5-HT7 receptor (Homo sapiens, UniProt P34969); assay: Serotonin 5-HT7 radioligand binding ([3H]LSD); conditions: read-out: Inhibition of ligand binding, Serotonin 5-HT7 (percent inhibition of specific binding); for inhibition at 1 µM: compound at 1 μM
Source text: Receptor proteins were filtered and washed, the filters were then counted to determine [^3H]LSD specifically bound.

[3] = biological target: T1, human recombinant serotonin (5-Hydroxytryptamine) 5-HT2A receptor (Homo sapiens, UniProt P28223); assay: Serotonin 5-HT2A radioligand binding ([3H]Ketanserin); conditions: for inhibition at 1 µM: read-out: Inhibition of ligand binding, Serotonin 5-HT2A (percent inhibition of specific binding), compound at 1 μM; for inhibition at 0.1 µM: read-out: Inhibition of ligand binding, Serotonin 5-HT2A (percent inhibition of specific binding), compound at 0.1 μM
T1 construct: expressed in transfected cells; host or cells: Chinese hamster ovary (CHO-K1) cells
Procedure: Compounds of the invention were incubated with 0.5 nM [^3H]Ketanserin for 60 min. at 25° C. Non-specific binding was estimated in the presence of 1 μM Mianserin. Receptor proteins were filtered and washed, the filters were then counted to determine [^3H]Ketanserin specifically bound.

histamine receptor H1 = histamine receptor H1 (Homo sapiens, UniProt P35367); assay: Histamine H1 radioligand binding ([3H]Pyrilamine); conditions: for inhibition at 1 µM: read-out: Histamine Binding (1 μM) H1, percent inhibition of specific binding, 1 μM
In short: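 Values are percent inhibition of specific [3H]pyrilamine (1.2 nM) binding with compounds at ≤1 μM (1% DMSO vehicle); 180 min incubation at 25 °C, pH 7.4 Tris buffer, on CHO-expressed human H1 receptor; 1 μM pyrilamine defined nonspecific binding, bound ligand counted after filtration.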

[4] = biological target: T2, human recombinant serotonin (5-Hydroxytryptamine) 5-HT6 receptor (Homo sapiens, UniProt P50406); assay: Serotonin 5-HT6 radioligand binding ([3H]LSD); conditions: read-out: Inhibition of ligand binding, Serotonin 5-HT6 (percent inhibition of specific binding); for inhibition at 1 µM: compound at 1 μM; for inhibition at 0.1 µM: compound at 0.1 μM
T2 construct: expressed in transfected cells; host or cells: human HeLa cells
Procedure: Compounds of the invention were incubated with 1.5 nM [3H]Lysergic acid diethylamide (LSD) for 120 min. at 37° C. […] Receptor proteins were filtered and washed, the filters were then counted to determine [3H]LSD specifically bound. Compounds were screened at 1 μM or lower, using 1% DMSO as vehicle. Biochemical assay results are presented as the percent inhibition of specific binding in Table 10.

[5] = biological target: T3, human recombinant serotonin (5-Hydroxytryptamine) 5-HT2C receptor (Homo sapiens, UniProt P28335); assay: Serotonin 5-HT2C radioligand binding ([3H]Mesulergine); conditions: read-out: Inhibition of ligand binding, Serotonin 5-HT2C (percent inhibition of specific binding); for inhibition at 1 µM: compound at 1 μM; for inhibition at 0.1 µM: compound at 0.1 μM
T3 construct: expressed in transfected cells; host or cells: Chinese hamster ovary (CHO-K1) cells
T3 sequence (P28335 33-458): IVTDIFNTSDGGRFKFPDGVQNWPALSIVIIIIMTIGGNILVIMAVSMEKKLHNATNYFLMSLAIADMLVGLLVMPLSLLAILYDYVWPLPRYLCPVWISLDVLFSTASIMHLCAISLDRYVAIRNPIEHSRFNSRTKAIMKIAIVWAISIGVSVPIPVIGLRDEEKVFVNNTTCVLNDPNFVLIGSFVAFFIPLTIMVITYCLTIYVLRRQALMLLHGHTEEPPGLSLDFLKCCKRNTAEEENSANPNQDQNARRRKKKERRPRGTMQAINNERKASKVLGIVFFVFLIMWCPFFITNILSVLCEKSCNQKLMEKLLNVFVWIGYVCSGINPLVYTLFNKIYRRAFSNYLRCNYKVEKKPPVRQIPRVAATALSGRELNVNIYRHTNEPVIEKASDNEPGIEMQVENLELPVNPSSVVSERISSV
In short: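 Compounds tested at 1 μM or lower (1% DMSO vehicle) for displacement of 1 nM [3H]Mesulergine over 60 min at 25° C. Specific binding determined by filtration counting, with 1 μM Mianserin defining non-specific binding; values are percent inhibition.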

[6] = biological target: T4, human recombinant histamine H2 receptor (Homo sapiens, UniProt P25021); assay: Histamine H2 radioligand binding ([125I]Aminopotentidine); conditions: read-out: Histamine Binding (1 μM) H2, percent inhibition of specific binding, 1 μM
T4 construct: expressed in transfected cells; host or cells: Chinese hamster ovary (CHO) K1 cells
Procedure: To evaluate in radioligand binding assays the activity of compounds of the invention, human recombinant histamine H2 receptor expressed in Chinese hamster ovary (CHO) K1 cells (Ruat, M., Proc. Natl. Acad. Sci. USA. 87(5):1658, 1990) in a 50 mM Phosphate buffer, pH 7.4 was used. Compounds of the invention were incubated with 0.1 nM [^125I]Aminopotentidine for 120 min. at 25° C. Non-specific binding was estimated in the presence of 3 μM Tiotidine. Receptor proteins were filtered and washed, the filters were then counted to determine [^125I]Aminopotentidine specifically bound.

Chain of histamine receptor H1 (P35367 whole entry): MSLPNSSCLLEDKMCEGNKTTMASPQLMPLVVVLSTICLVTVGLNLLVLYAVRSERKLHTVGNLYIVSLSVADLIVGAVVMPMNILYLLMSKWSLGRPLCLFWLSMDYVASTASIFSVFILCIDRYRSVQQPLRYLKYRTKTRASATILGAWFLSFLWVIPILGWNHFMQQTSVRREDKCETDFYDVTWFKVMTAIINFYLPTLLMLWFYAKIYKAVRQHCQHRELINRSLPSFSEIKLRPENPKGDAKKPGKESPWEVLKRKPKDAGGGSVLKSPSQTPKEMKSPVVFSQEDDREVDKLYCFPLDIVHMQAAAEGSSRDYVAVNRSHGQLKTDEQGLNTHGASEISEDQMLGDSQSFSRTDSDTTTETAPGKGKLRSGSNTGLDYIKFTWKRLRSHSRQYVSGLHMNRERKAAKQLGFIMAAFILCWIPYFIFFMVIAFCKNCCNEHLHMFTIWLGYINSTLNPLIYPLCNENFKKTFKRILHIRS
T4 sequence (P25021 whole entry): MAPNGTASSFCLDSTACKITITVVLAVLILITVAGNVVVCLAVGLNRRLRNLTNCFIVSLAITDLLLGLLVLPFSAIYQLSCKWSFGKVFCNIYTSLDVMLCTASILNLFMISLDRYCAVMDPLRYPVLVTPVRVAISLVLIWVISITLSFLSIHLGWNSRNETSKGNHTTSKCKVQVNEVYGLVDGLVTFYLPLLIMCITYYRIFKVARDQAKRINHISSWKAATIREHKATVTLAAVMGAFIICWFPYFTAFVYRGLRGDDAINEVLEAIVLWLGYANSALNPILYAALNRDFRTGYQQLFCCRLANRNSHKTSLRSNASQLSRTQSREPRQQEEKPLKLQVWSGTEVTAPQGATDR
Chain of human dopamine D2L receptor (P14416 whole entry): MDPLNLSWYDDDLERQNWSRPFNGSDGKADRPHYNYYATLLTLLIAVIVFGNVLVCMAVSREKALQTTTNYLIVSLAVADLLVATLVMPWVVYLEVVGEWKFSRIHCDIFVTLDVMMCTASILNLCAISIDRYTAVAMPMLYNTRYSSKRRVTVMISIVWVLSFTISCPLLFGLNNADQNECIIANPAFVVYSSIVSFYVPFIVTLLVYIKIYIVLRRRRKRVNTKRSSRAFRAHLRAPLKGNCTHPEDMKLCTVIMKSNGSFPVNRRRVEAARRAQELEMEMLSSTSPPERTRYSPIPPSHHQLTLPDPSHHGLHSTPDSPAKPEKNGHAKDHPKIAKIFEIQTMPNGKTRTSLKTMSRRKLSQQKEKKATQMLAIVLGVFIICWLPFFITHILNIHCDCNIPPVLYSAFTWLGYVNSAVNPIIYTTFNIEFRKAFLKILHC
Chain of human recombinant serotonin (5-Hydroxytryptamine) 5-HT7 receptor (P34969 whole entry): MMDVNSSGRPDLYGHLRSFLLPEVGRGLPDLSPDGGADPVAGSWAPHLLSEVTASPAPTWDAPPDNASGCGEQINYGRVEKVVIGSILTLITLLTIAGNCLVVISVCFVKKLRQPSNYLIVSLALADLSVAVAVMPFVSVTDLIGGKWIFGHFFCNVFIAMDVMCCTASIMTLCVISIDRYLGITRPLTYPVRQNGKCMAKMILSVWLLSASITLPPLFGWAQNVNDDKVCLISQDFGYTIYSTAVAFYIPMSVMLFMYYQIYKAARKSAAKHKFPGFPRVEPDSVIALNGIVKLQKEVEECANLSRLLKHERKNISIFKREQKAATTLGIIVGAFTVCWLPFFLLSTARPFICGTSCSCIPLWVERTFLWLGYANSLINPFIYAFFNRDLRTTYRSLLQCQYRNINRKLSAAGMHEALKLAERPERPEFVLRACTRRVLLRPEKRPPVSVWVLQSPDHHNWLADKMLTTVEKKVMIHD
T1 sequence (P28223 whole entry): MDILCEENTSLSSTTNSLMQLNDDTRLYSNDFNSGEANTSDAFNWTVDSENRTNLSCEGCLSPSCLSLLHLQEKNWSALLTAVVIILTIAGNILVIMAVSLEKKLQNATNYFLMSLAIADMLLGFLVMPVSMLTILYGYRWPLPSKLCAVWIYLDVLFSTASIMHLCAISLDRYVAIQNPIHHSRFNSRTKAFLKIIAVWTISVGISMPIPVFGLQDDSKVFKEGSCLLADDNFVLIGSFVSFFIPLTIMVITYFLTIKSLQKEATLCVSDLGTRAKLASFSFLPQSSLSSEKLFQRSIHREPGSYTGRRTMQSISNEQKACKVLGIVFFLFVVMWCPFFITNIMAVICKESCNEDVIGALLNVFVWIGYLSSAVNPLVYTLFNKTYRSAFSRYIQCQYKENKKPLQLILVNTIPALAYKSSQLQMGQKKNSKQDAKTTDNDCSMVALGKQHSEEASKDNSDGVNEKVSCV
T2 sequence (P50406 whole entry): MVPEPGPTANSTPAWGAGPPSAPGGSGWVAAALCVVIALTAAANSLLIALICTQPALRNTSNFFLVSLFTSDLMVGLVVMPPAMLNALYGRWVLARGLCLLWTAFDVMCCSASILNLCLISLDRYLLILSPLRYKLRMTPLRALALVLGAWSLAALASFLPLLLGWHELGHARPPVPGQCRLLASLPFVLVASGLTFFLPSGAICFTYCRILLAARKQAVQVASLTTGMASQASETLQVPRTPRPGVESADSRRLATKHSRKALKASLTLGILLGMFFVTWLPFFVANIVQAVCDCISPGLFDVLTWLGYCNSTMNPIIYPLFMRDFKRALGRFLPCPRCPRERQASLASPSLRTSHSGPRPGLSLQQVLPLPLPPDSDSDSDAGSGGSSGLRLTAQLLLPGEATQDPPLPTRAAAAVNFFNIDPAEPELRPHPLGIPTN

| SMILES | inhibition at 1 µM [1] [%] | inhibition at 1 µM [2] [%] | inhibition at 1 µM [3] [%] | inhibition at 1 µM (histamine receptor H1) [%] | inhibition at 1 µM [4] [%] | inhibition at 1 µM [5] [%] | inhibition at 1 µM [6] [%] | Inhibition of ligand binding, Dopamine D2L [1] [%] | inhibition at 0.1 µM ([2]; compound at 0.1 μM) [%] | inhibition at 0.1 µM [3] [%] | Histamine Binding (1 μM) H1, percent inhibition of specific binding (histamine receptor H1) | inhibition at 0.1 µM [4] [%] | inhibition at 0.1 µM [5] [%] |
| --- | --- | --- | --- | --- | --- | --- | --- | --- | --- | --- | --- | --- | --- |
| COc1ccc(/C(C)=C/n2c3c(c4cc(C)ccc42)CN(C)CC3)cc1F [Compound 214, (E)-5-(2-(3-fluoro-4-methoxyphenyl)prop-1-enyl)-2,8-dimethyl-2,3,4,5-tetrahydro-1H-pyrido[4,3-b]indole] | 83 | 97 | 93 | 23 | 94 | 95 | 100 |  |  |  |  |  |  |
| C/C(=C\n1c2c(c3cc(Cl)ccc31)CN(C)CC2)c1cc(Cl)cc(Cl)c1 [Compound 215, (E)-8-chloro-5-(2-(3,5-dichlorophenyl)prop-1-enyl)-2-methyl-2,3,4,5-tetrahydro-1H-pyrido[4,3-b]indole] | 36 | 90 | 97 | 89 | 97 | 96 | 98 |  |  |  |  |  |  |
| C/C(=C\n1c2c(c3cc(F)ccc31)CN(C)CC2)c1ccncc1 [Compound 216, (E)-8-fluoro-2-methyl-5-(2-(pyridin-4-yl)prop-1-enyl)-2,3,4,5-tetrahydro-1H-pyrido[4,3-b]indole] | 97 | 79 | 99 | 47 | 104 | 94 | 61 | 98 | 66 | 98 | 49% | 100 | 83 |
| C/C(=C\n1c2c(c3cc(C)ccc31)CN(C)CC2)c1cc(Cl)cc(Cl)c1 [Compound 218, (E)-5-(2-(3,5-dichlorophenyl)prop-1-enyl)-2,8-dimethyl-2,3,4,5-tetrahydro-1H-pyrido[4,3-b]indole] | 40 | 93 | 99 |  | 99 | 96 | 98 | 43 |  | 94 | 78% and 79% | 85 | 92 |
| C/C(=C\n1c2c(c3ccc(Cl)cc31)CN(C)CC2)c1ccncc1 [Compound 219, (E)-7-chloro-2-methyl-5-(2-(pyridin-4-yl)prop-1-enyl)-2,3,4,5-tetrahydro-1H-pyrido[4,3-b]indole] | 96 | 94 | 101 | 60 | 102 | 98 | 82 | 97 |  | 100 | 66% | 96 | 94 |
| C/C(=C/n1c2c(c3cc(C)ccc31)CN(C)CC2)c1cc(F)c(F)cc1Cl [Compound 220, (Z)-5-(2-(2-chloro-4,5-difluorophenyl)prop-1-enyl)-2,8-dimethyl-2,3,4,5-tetrahydro-1H-pyrido[4,3-b]indole] | 32 | 104 | 99 | 91 | 99 | 98 | 99 |  |  |  |  |  |  |
| C/C(=C\n1c2c(c3cc(C)ccc31)CN(C)CC2)c1cc(F)c(F)cc1Cl [Compound 221, (E)-5-(2-(2-chloro-4,5-difluorophenyl)prop-1-enyl)-2,8-dimethyl-2,3,4,5-tetrahydro-1H-pyrido[4,3-b]indole] | 34 | 93 | 97 | 90 | 95 | 99 | 98 |  |  |  |  |  |  |
| C/C(=C\n1c2c(c3cccc(Cl)c31)CN(C)CC2)c1ccncc1 [Compound 222, (E)-6-chloro-2-methyl-5-(2-(pyridin-4-yl)prop-1-enyl)-2,3,4,5-tetrahydro-1H-pyrido[4,3-b]indole] | 82 | 69 | 100 | 25 | 102 | 99 | 91 |  |  |  |  |  |  |
| C/C(=C/n1c2c(c3cc(C)ccc31)CN(C)CC2)c1cccc(F)c1 [Compound 225, (Z)-5-(2-(3-fluorophenyl)prop-1-enyl)-2,8-dimethyl-2,3,4,5-tetrahydro-1H-pyrido[4,3-b]indole] | 43 | 94 | 99 | 81 | 103 | 100 | 98 |  |  |  |  |  |  |
| C/C(=C\n1c2c(c3cc(C)ccc31)CN(C)CC2)c1cccc(F)c1 [Compound 226, (E)-5-(2-(3-fluorophenyl)prop-1-enyl)-2,8-dimethyl-2,3,4,5-tetrahydro-1H-pyrido[4,3-b]indole] | 46 | 100 | 98 | 71 | 101 | 100 | 100 |  |  |  |  |  |  |
| C/C(=C\n1c2c(c3ccc(F)cc31)CN(C)CC2)c1ccc(F)cc1 [Compound 227, (E)-7-fluoro-5-(2-(4-fluorophenyl)prop-1-enyl)-2-methyl-2,3,4,5-tetrahydro-1H-pyrido[4,3-b]indole] | 97 | 90 | 103 | 52 | 107 | 103 | 101 |  |  |  |  |  |  |
| C/C(=C\n1c2c(c3ccc(Cl)cc31)CN(C)CC2)c1ccc(F)cc1 [Compound 228, (E)-7-chloro-5-(2-(4-fluorophenyl)prop-1-enyl)-2-methyl-2,3,4,5-tetrahydro-1H-pyrido[4,3-b]indole] | 98 | 97 | 101 | 66 | 106 | 97 | 102 |  |  |  |  |  |  |
| C/C(=C\n1c2c(c3ccc(C(F)(F)F)cc31)CN(C)CC2)c1ccc(F)cc1 [Compound 229, (E)-5-(2-(4-fluorophenyl)prop-1-enyl)-2-methyl-7-(trifluoromethyl)-2,3,4,5-tetrahydro-1H-pyrido[4,3-b]indole] | 100 | 89 | 100 | 54 | 107 | 100 | 96 |  |  |  |  |  |  |
